Data on two molecules can be found in patent US10624875B2, “Methods and compositions for treating schizophrenia” (The Johns Hopkins University, priority 2012, dated 2020).

For one assay, the system named is aged-impaired (AI) rats. The assay is described as follows: eight-arm Radial Arm Maze (RAM) task with one-hour delay, spatial memory retention. The assay is classed as in vivo, rat. Conditions: drug on its own (levetiracetam i.p., valproate subcutaneous). The protocol: The effects of levetiracetam on the spatial memory retention of aged-impaired (AI) rats were assessed in a Radial Arm Maze (RAM) behavioral task using vehicle control and five different dosage levels of levetiracetam (1.25 mg/kg/day, 2.5 mg/kg/day, 5 mg/kg/day, 10 mg/kg/day and 20 mg/kg/day). RAM behavioral tasks were preformed on ten AI rats. All six treatment conditions were tested on all ten rats, as described above for the MWM test. The RAM apparatus used consisted of eight equidistantly-spaced arms. An elevated maze arm (7 cm width×75 cm length) projected from each facet of an octagonal center platform (30 cm diameter, 51.5 cm height). Clear side walls on the arms were 10 cm high and were angled at 65° to form a trough. A food well (4 cm diameter, 2 cm deep) was located at the distal end of each arm. Froot Loops™ (Kellogg Company) were used as rewards. Blocks constructed of Plexiglas™ (30 cm height×12 cm width) could be positioned to prevent entry to any arm. Numerous extra maze cues surrounding the apparatus were also provided. The AI rats were initially subjected to a pre-training test (Chappell et al. Neuropharmacology 37: 481-487, 1998). The pre-training test consisted of a habituation phase (4 days), a training phase on the standard win-shift task (18 days) and another training phase (14 days) in which a brief delay was imposed between presentation of a subset of arms designated by the experimenter (e.g., 5 arms available and 3 arms blocked) and completion of the eight-arm win-shift task (i.e., with all eight arms available). In the habituation phase, rats were familiarized to the maze for an 8-minute session on four consecutive days. In each of these sessions food rewards were scattered on the RAM, initially on the center platform and arms and then progressively confined to the arms. After this habituation phase, a standard training protocol was used, in which a food pellet was located at the end of each arm. Rats received one trial each day for 18 days. Each daily trial terminated when all eight food pellets had been obtained or when either 16 choices were made or 15 minutes had elapsed. After completion of this training phase, a second training phase was carried out in which the memory demand was increased by imposing a brief delay during the trial. At the beginning of each trial, three arms of the eight-arm maze were blocked. Rats were allowed to obtain food on the five arms to which access was permitted during this initial ‘information phase’ of the trial. Rats were then removed from the maze for 60 seconds, during which time the barriers on the maze were removed, thus allowing access to all eight arms. Rats were then placed back onto the center platform and allowed to obtain the remaining food rewards during this ‘retention test’ phase of the trial. The identity and configuration of the blocked arms varied across trials. The number of “errors” the AI rats made during the retention test phase was tracked. An error occurred in the trial if the rats entered an arm from which food had already been retrieved in the pre-delay component of the trial, or if it re-visited an arm in the post-delay session that had already been visited. After completion of the pre-training test, rats were subjected to trials with more extended delay intervals, i.e., a one-hour delay, between the information phase (presentation with some blocked arms) and the retention test (presentation of all arms). […]

In assay [1] the test system is MAM-treated rats. Particulars: cited from earlier work.
The subject of assay [2] is MAM-treated rats. Particulars: administered systemically and directly infused into the ventral HPC; cited from earlier work.
In a further assay the test system is HPC neurons. Conditions: saline-treated and MAM-treated animals; cited from earlier work.

Where “and” joins values, the source holds several entries; their conditions need not be identical. Equal values may be shown once.

Turning to `CCCC(CCC)C(=O)O` [Valproate], in the assay with aged-impaired (AI) rats, the “dose effective in reducing the number of errors” value stood at 100 mg/kg; the “dose not effective in reducing the number of errors” value was 25 mg/kg and 50 mg/kg.
For the molecule `C#Cc1ccc2c(c1)C(c1ccccc1F)=N[C@H](C)c1c(C(=O)OCC)ncn1-2` [SH-053-2′F—R—CH3], in the assay with MAM-treated rats [1], the “increased locomotor response to amphetamine” value is listed as “is reduced”. Further, the “number of spontaneously active DA neurons in the ventral tegmental area (VTA)” value in the assay with MAM-treated rats [2] is “reduces the number of spontaneously active DA neurons”. Also, in the assay on HPC neurons, the “cortical-evoked responses of HPC neurons” value was “diminished cortical-evoked responses”.
